The text below walks through data of patent US20260085062A1, “NOVEL COMPOUNDS AS CK2 INHIBITORS” (Cambridge Enterprise Limited, priority 2022, published 2026).

The target of one experiment is T1, CK2α (Homo sapiens, UniProt P68400).
T1 construct: CK2α (residues 2-329) was produced in Escherichia coli BL21 (DE3) for kinase activity screening; His6 (N, cleaved yes); made in house; host or cells: Escherichia coli BL21 (DE3)
T1 sequence (P68400 2-329): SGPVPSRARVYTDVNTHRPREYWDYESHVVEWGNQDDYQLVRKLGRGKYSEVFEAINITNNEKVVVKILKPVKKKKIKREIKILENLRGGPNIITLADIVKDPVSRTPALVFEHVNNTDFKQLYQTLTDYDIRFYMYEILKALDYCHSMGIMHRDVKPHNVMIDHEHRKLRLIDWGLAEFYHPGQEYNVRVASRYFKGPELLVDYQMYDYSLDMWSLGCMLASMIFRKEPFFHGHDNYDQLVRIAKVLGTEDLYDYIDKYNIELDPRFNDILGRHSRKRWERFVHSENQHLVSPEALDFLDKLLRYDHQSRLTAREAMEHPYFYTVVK
Kind of experiment: Biochemical assay for inhibitors of CK2α kinase activity (ADP-Glo). Conditions: 0.2 nM CK2α, 50 μM peptide substrate, 15 μM ATP, read-out: Assay 1: CK2α Enzyme IC50.

For another experiment, the target named is T2, CLK2 (Homo sapiens, UniProt P49760).
T2 construct: purchased Carna Biosciences 04-127
T2 sequence (P49760 whole entry): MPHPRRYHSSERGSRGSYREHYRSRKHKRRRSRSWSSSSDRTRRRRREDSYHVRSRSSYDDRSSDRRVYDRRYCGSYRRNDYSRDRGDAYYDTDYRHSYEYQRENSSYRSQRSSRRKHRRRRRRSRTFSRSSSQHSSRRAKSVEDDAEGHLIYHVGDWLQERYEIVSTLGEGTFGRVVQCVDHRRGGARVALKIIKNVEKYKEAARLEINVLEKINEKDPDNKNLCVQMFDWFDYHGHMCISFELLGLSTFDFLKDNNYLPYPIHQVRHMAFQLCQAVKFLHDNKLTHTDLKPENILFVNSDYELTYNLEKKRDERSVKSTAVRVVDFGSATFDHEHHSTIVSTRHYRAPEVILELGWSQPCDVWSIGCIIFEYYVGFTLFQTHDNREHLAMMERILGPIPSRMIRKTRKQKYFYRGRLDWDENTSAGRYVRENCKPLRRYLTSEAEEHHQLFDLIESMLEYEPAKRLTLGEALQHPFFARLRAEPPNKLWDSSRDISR
Put plainly: Biochemical assay for inhibitors of CLK2 kinase activity (ADP-Glo). Conditions: 20 nM CLK2, 50 μM peptide substrate, 100 μM ATP, read-out: Assay 2: CLK2 Enzyme IC50. (In general: ADP-Glo turns the ADP formed in a reaction into a luminescent signal.)

A further experiment concerns the target T3, intracellular CK2α (Homo sapiens, UniProt P19784).
T3 construct: host or cells: HCT116 (ATCC CCL-247)
Put plainly: Cell-based NanoBRET assay for inhibitor binding to intracellular CK2α. Conditions: HCT116 cells transiently transfected with CSNK2A2-NanoLuc fusion vector; Tracer K-5; 2 h; read-out: Assay 3: NanoBRET ™ assay for binding to intracellular CK2α. The method, boiled down: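 Apparent affinity came from BRET ratio (acceptor/donor ×1,000), with donor read at 450 nm and acceptor at 610 or 630 nm. Compounds competed off a tracer added at fixed concentration to cells carrying a NanoLuc-CK2α fusion.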

T3 sequence (P19784 whole entry): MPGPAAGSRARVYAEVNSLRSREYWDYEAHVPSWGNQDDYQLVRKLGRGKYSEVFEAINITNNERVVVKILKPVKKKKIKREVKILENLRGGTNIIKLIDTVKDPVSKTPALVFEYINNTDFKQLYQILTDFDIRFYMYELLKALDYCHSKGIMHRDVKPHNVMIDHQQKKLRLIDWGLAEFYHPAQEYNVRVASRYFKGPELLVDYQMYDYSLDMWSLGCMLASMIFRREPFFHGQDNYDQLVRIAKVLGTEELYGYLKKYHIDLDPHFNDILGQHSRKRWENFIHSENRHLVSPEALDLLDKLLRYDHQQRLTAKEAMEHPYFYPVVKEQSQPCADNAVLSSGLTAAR

Take `OCc1cc(CNC2CC(COCCOc3cc(-c4cnnc(O)c4)cc4[nH]ncc34)C2)cc(OC(F)(F)F)c1` (stereo not drawn) [Example 200]: the IC50 was 38.2 nM on CK2α, 594 nM on CLK2 and 2960 nM on intracellular CK2α.
Turning to `O=C(O)CCc1cc(NCCOCCCCNCc2cc(F)c(OC(F)(F)F)c(F)c2)c2cn[nH]c2c1` [Example 201, 3-(4-((2-(4-((3,5-difluoro-4-(trifluoromethoxy)benzyl)amino)butoxy)ethyl)amino)-1H-indazol-6-yl)propanoic acid], the IC50 was 0.87 nM on CK2α, 7830 nM at CLK2 and 142 nM on intracellular CK2α.
For `OCCOc1cc(CNCCCCOCCNc2cccc3[nH]ncc23)cc(OC(F)(F)F)c1` [Example 202, 2-(3-(((4-(2-((1H-indazol-4-yl)amino)ethoxy)butyl)amino)methyl)-5-(trifluoromethoxy)phenoxy)ethan-1-ol], in that order: 216 nM, 23300 nM and greater than 3000 nM.
For `OCc1cc(CNC2CC(COCCNc3cc(-c4cnns4)cc4[nH]ncc34)C2)cc(OC(F)(F)F)c1` (stereo not drawn) [Example 203, (3-(((3-((2-((6-(1,2,3-thiadiazol-5-yl)-1H-indazol-4-yl)amino)ethoxy)methyl)cyclobutyl)amino)methyl)-5-(trifluoromethoxy)phenyl)methanol], in that order: 36.1 nM, 307 nM and 546 nM.
For `N#CCc1cc(NCCOCCCCNCc2cc(CO)cc(OC(F)(F)F)c2)c2cn[nH]c2c1` [Example 204, 2-(4-((2-(4-((3-(hydroxymethyl)-5-(trifluoromethoxy)benzyl)amino)butoxy)ethyl)amino)-1H-indazol-6-yl)acetonitrile], in that order: 46.2 nM, 3440 nM and 405 nM.
With `OCCOc1cc(CNC2CC(COCCNc3cc(-c4cnns4)cc4[nH]ncc34)C2)cc(OC(F)(F)F)c1` (stereo not drawn) [Example 205], the results for the IC50 on CK2α, at CLK2 and on intracellular CK2α were 12.7 nM, 214 nM and 467 nM, respectively.
Taken in the same sequence, the figures for `CC(C)(C#N)c1cc(NCCOCCCCNCc2cc(CO)cc(OC(F)(F)F)c2)c2cn[nH]c2c1` [Example 206, 2-(4-((2-(4-((3-(hydroxymethyl)-5-(trifluoromethoxy)benzyl)amino)butoxy)ethyl)amino)-1H-indazol-6-yl)-2-methylpropanenitrile] were 63.9 nM, 2260 nM and 595 nM.
Taken in the same sequence, the figures for `C[C@@H](CCCOCCNc1cc(-c2cnns2)cc2[nH]ncc12)NCc1cc(CO)cc(OC(F)(F)F)c1` [Example 207, (S)-(3-(((5-(2-((6-(1,2,3-thiadiazol-5-yl)-1H-indazol-4-yl)amino)ethoxy)pentan-2-yl)amino)methyl)-5-(trifluoromethoxy)phenyl)methanol] were 1.71 nM, 240 nM and 8.66 nM.
Taken in the same sequence, the figures for `C[C@H](COCCCCNCc1cc(CO)cc(OC(F)(F)F)c1)Nc1cc(-c2cnns2)cc2[nH]ncc12` [Example 208, (R)-(3-(((4-(2-((6-(1,2,3-thiadiazol-5-yl)-1H-indazol-4-yl)amino)propoxy)butyl)amino)methyl)-5-(trifluoromethoxy)phe-nyl)methanol] were 8.92 nM, 69.7 nM and 69.9 nM.
In the case of “N-(2-(4-((3-chloro-4-(trifluoromethoxy)benzyl)amino)butoxy)ethyl)-6-(azetidine-4-yl)-1H-benzo[d][1,2,3]triazol-4-amine [Example 127]”, the IC50 worked out at 5.06 nM at CK2α, 1380 nM on CLK2 and 306 nM on intracellular CK2α.
